These compounds were tested against T1, hamster SUR1 (Cricetus cricetus, UniProt Q09427) (assay: Competitive binding to sulfonylurea and KCO sites of SUR1 ([3H]glibenclamide displacement, COS-cell membranes)). Conditions: SUR1 versus SUR2 selectivity, in words.
T1 construct: expressed in transfected cells; host or cells: COS-1 cells, transient transfection (pcDNA vector), membrane preparation
T1 sequence (Q09427 whole entry): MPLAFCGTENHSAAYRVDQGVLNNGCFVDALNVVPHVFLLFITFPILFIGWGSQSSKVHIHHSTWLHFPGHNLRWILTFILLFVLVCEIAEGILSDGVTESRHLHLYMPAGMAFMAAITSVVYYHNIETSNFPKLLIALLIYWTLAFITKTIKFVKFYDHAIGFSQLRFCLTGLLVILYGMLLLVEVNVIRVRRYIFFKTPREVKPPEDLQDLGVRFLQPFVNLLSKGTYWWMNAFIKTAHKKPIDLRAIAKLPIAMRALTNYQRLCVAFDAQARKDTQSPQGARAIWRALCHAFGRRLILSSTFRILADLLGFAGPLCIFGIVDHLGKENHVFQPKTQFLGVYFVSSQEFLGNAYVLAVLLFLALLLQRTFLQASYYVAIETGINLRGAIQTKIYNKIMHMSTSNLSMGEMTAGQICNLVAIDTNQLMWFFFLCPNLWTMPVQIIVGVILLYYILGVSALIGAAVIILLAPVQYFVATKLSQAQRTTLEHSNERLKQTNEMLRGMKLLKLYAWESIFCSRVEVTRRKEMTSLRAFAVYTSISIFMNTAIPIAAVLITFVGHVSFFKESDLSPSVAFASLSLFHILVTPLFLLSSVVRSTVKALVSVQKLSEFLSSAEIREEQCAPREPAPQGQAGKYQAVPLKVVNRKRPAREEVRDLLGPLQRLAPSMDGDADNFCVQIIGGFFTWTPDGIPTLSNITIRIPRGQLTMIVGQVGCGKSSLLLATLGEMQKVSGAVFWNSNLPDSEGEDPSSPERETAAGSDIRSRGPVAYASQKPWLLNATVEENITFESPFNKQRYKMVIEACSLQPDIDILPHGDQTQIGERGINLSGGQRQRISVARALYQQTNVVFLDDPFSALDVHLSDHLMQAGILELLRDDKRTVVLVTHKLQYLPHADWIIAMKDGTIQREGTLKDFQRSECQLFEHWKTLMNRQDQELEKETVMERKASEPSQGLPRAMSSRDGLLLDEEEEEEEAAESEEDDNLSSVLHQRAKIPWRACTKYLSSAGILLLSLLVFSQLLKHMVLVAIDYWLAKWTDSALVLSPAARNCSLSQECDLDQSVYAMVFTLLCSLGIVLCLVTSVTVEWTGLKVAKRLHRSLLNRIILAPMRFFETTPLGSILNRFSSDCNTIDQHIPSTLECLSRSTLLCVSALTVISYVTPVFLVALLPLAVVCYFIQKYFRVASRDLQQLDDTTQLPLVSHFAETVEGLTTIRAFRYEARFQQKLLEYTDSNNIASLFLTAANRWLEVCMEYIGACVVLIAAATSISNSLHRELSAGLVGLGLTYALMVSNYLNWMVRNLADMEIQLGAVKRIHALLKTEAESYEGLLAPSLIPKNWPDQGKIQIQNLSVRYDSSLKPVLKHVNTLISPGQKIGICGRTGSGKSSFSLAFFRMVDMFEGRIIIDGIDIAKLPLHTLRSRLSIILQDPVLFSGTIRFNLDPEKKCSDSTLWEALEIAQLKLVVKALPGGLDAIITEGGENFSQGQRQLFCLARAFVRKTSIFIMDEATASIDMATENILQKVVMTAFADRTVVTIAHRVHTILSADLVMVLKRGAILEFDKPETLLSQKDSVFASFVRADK
Protocol: Competitive binding experiments were performed to characterize the affinity of the test compounds for the binding sites for sulfonylureas and KATP channel openers (=KCOs) on hamster SUR1. To assess the affinity for the sulfonylurea site membranes from COS-cells transiently expressing hamster SUR1 were incubated in the presence of [^3H]glibenclamide with increasing concentrations of test compounds. […] Per curve 9-15 distinct concentrations were tested covering the relevant range. All measurements were repeated at least 5 times in independent experiments.
[^3H]glibenclamide (specific activity 51 Ci mmol^−1) was obtained from NEN (Dreieich, Germany). If suitable, stock solutions were prepared in dimethylsulfoxide with a final solvent concentration in the media below 1%.
SUR- or Kir6.x isoforms were used either subcloned in the pcDNA (hamster SUR1, mouse Kir6.2) or pCMV vector (rat SUR2A, SUR2B).
For transfection the cells were incubated 4 hours in a Tris-buffered salt solution containing DNA (5-10 μg/ml) plus DEAE-dextran (1 mg/ml), 2 min in HEPES-buffered salt solution plus dimethylsulfoxide (10%) and 4 hours in DMEM-HG plus chloroquine (100 μM). Cells were then returned to DMEM-HG plus 10% FCS. […] For binding experiments resuspended membranes (final protein concentration 5-50 μg/ml) were incubated in “Tris-buffer” (50 mM, pH 7.4) containing either [^3H]glibenclamide (final concentration 0.3 nM or 3 nM and nonspecific binding defined by 100 nM or 1 μM glibenclamide for SUR1 or SUR2Y1205S-isoforms, respectively) or [^3H]P1075 (final concentration 3 nM, nonspecific binding defined by 100 μM pinacidil) and increasing concentrations of the test compounds. […] Incubations were carried out for 1 h at room temperature and were terminated by rapid filtration through Whatman GF/B filters.
The inhibition constant (Ki value) of the test substances was calculated from the respective IC50 value, and was stated as the negative logarithmised value thereof (pKi).
For `CNC(=NS(=O)(=O)N1CCOCC1)C1=NN(c2ccc(Cl)cc2Cl)C(c2ccccc2)C1` (stereo not drawn) [1-(2,4-dichlorophenyl)-N-methyl-N′-(morpholin-4-ylsulfonyl)-5-phenyl-4,5-dihydro-1H-pyrazole-3-carboximidamide], the “pki (SUR1) compared with pki (SUR2)” value was “pki (SUR1) larger than pki (SUR2)”. With `CCN(CC)C(=O)c1cn(-c2ccc(Cl)cc2)c(-c2ccc(Cl)cc2Cl)n1` [1-(4-chlorophenyl)-2-(2,4-dichlorophenyl)-N,N-diethyl-1H-imidazole-4-carboxamide] the “pki (SUR1) compared with pki (SUR2)” value was “pki (SUR1) larger than pki (SUR2)”. `CNC(=NS(=O)(=O)N1CCOCC1)N1CC(c2ccccc2)C(c2ccc(Cl)cc2)=N1` (stereo not drawn) [3-(4-chlorophenyl)-N-methyl-N′-(morpholin-4-ylsulfonyl)-4-phenyl-4,5-dihydro-1H-pyrazole-1-carboximidamide] was tested, and the “pki (SUR1) compared with pki (SUR2)” value was “pki (SUR1) larger than pki (SUR2)”. In the case of `Cc1c(NC(=O)c2ccccc2)nc(-c2ccc(Cl)cc2Cl)n1-c1ccc(Cl)cc1` [N-[1-(4-chlorophenyl)-2-(2,4-di-chlorophenyl)-5-methyl-1H-imidazol-4-yl]benzamide], the “pki (SUR1) compared with pki (SUR2)” value is reported as “pki (SUR1) larger than pki (SUR2)”. In the case of `CCCCCCC(C)(C)c1ccc([C@@H]2C[C@H](O)CC[C@H]2CCCO)c(O)c1` [5-(1,1-dimethylheptyl)-2-[(1R,2R,5R)-5-hydroxy-2-(3-hydroxypropyl)cyclohexyl]-phenol], the “pki (SUR1) compared with pki (SUR2)” value is reported as “pki (SUR1) larger than pki (SUR2)”. In the case of `CCc1c(C(=O)NN2CCCCC2)nc(-c2ccc(Cl)cc2Cl)n1-c1ccc(Br)cc1` [1-(4-bromophenyl)-2-(2,4-dichloro-phenyl)-5-ethyl-N-piperidin-1-yl-1H-imidazole-4-carboxamide], the “pki (SUR1) compared with pki (SUR2)” value is reported as “pki (SUR1) larger than pki (SUR2)”. `CNC(=NS(=O)(=O)N1CCCCC1)C1=NN(c2ccc(Cl)cc2)C(c2ccccc2)C1` (stereo not drawn) [1-(4-chlorophenyl)-N-methyl-5-phenyl-N′-(piperidin-1-yl-sulfonyl)-4,5-dihydro-1H-pyrazole-3-carboximidamide] was tested, and the “pki (SUR1) compared with pki (SUR2)” value was “pki (SUR1) larger than pki (SUR2)”. In the case of `O=C(NS(=O)(=O)c1ccc(Cl)cc1)c1cc(-c2ccc(Br)cc2)n(-c2ccc(Cl)cc2Cl)n1` [5-(4-bromophenyl)-N-[(4-chlorophenyl)sulfonyl]-1-(2,4-dichlorophenyl)-1H-pyrazole-3-carboxamide], the “pki (SUR1) compared with pki (SUR2)” value is reported as “pki (SUR1) larger than pki (SUR2)”. With `CCCCCc1nc(-c2ccc(Cl)cc2Cl)n(-c2ccc(Cl)cc2)c1C` [1-(4-chlorophenyl)-2-(2,4-dichlorophenyl)-5-methyl-4-pentyl-1H-imidazole] the “pki (SUR1) compared with pki (SUR2)” value was “pki (SUR1) larger than pki (SUR2)”. For `CCCCCNC(=O)c1nc(-c2ccc(Cl)cc2Cl)n(-c2ccc(Br)cc2)c1CC` [1-(4-bromophenyl)-2-(2,4-dichlorophenyl)-5-ethyl-N-pentyl-1H-imidazole-4-carboxamide], the “pki (SUR1) compared with pki (SUR2)” value was “pki (SUR1) larger than pki (SUR2)”. `NC(=NS(=O)(=O)c1ccc(Cl)cc1)N1CC(c2ccccc2)C(c2ccc(Cl)cc2)=N1` (stereo not drawn) [3-(4-chlorophenyl)-N′-[(4-chlorophenyl)sulfonyl]-4-phenyl-4,5-dihydro-1H-pyrazole-1-carboximidamide] was tested, and the “pki (SUR1) compared with pki (SUR2)” value was “pki (SUR1) larger than pki (SUR2)”. With `CN(C)S(=O)(=O)N=C(NCCF)N1CC(c2ccccc2)C(c2ccc(Cl)cc2)=N1` (stereo not drawn) [3-(4-chlorophenyl)-N′-[(dimethylamino)sulfonyl]-N-(2-fluoro-ethyl)-4-phenyl4,5-dihydro-1H-pyrazole-1-carboximidamide] the “pki (SUR1) compared with pki (SUR2)” value was “pki (SUR1) larger than pki (SUR2)”. For `O=S(=O)(N=C(NCc1cccnc1)N1CC(c2ccccc2)C(c2ccc(Cl)cc2)=N1)c1ccc(Cl)cc1` (stereo not drawn) [3-(4-chlorophenyl)-N′-[(4-chlorophenyl)sulfonyl]-4-phenyl-N-(pyridin-3-ylmethyl)-4,5-dihydro-1H-pyrazole-1-carboximidamide], the “pki (SUR1) compared with pki (SUR2)” value was “pki (SUR1) larger than pki (SUR2)”. With `NC(=NS(=O)(=O)c1ccc(Cl)cc1)N1C[C@H](c2ccccc2)C(c2ccc(Cl)cc2)=N1` [(4S)-3-(4-chlorophenyl)-N′-[(4-chlorophenyl)sulfonyl]-4-phenyl-4,5-dihydro-1H-pyrazole-1-carboximidamide] the “pki (SUR1) compared with pki (SUR2)” value was “pki (SUR1) larger than pki (SUR2)”. With `CSc1c(C(=O)NC2CCCCC2)nc(-c2ccc(Cl)cc2Cl)n1-c1ccc(Cl)cc1` [1-(4-chlorophenyl)-N-cyclohexyl-2-(2,4-dichlorophenyl)-5-(methylthio)-1H-imidazole-4-carboxamide] the “pki (SUR1) compared with pki (SUR2)” value was “pki (SUR1) larger than pki (SUR2)”. In the case of `CS(=O)(=O)C(=C1CN(C(c2ccc(Cl)cc2)c2ccc(Cl)cc2)C1)c1cc(F)cc(F)c1` [1-[bis(4-chlorophenyl)methyl]-3-[(3,5-difluorophenyl)(methylsulfonyl)-methylene]azetidine], the “pki (SUR1) compared with pki (SUR2)” value is reported as “pki (SUR1) larger than pki (SUR2)”. In the case of `CN1CCC(CNC(=NS(=O)(=O)c2ccc(Cl)cc2)N2CC(c3ccccc3)C(c3ccc(Cl)cc3)=N2)C1` (stereo not drawn) [3-(4-chlorophenyl)-N′-[(4-chlorophenyl)sulfonyl]-N-[(1-methylpyrrolidin-3-yl)-methyl]-4-phenyl-4,5-dihydro-1H-pyrazole-1-carboximidamide], the “pki (SUR1) compared with pki (SUR2)” value is reported as “pki (SUR1) larger than pki (SUR2)”. In the case of `CCC1CN=C(N2CC(c3ccccc3)C(c3ccc(Cl)cc3)=N2)O1` (stereo not drawn) [2-[3-(4-chlorophenyl)-4-phenyl-4,5-dihydro-1H-pyrazol-1-yl]-5-ethyl-4,5-dihydro-1,3-oxazole], the “pki (SUR1) compared with pki (SUR2)” value is reported as “pki (SUR1) larger than pki (SUR2)”. `CNC(=NS(=O)(=O)c1ccc(Cl)cc1)N1CC(c2cccnc2)C(c2ccc(Cl)cc2)=N1` (stereo not drawn) [3-(4-chlorophenyl)-N′-[(4-chlorophenyl)sulfonyl]-N-methyl-4-pyridin-3-yl-4,5-dihydro-1H-pyrazole-1-carboximidamide] was tested, and the “pki (SUR1) compared with pki (SUR2)” value was “pki (SUR1) larger than pki (SUR2)”. With `O=C1c2ccccc2S(=O)(=O)N1C1CN(C(c2ccc(Cl)cc2)c2ccc(Cl)cc2)C1` [2-{1-[bis(4-chlorophenyl)methyl]azetidin-3-yl}-1,2-benzisothiazol-3(2H)-one 1,1-dioxide] the “pki (SUR1) compared with pki (SUR2)” value was “pki (SUR1) larger than pki (SUR2)”. With `O=C(NN1CCCCC1)c1nn(-c2ccc(Cl)cc2Cl)c2c1CCCc1cc(Cl)ccc1-2` [8-chloro-1-(2,4-dichlorophenyl)-N-piperidin-1-yl-1,4,5,6-tetrahydrobenzo[6,7]cyclohepta[1,2-c]pyrazole-3-carboxamide] the “pki (SUR1) compared with pki (SUR2)” value was “pki (SUR1) larger than pki (SUR2)”. In the case of `N[C@@H](Cc1ccc(Cl)c(Cl)c1)C(=O)N1CC(c2ccccc2)C(c2ccc(Cl)cc2)=N1` (stereo partly drawn) [(2S)-1-[3-(4-chlorophenyl)-4-phenyl-4,5-dihydro-1H-pyrazol-1-yl]-3-(3,4-dichloro-phenyl)-1-oxopropan-2-amine], the “pki (SUR1) compared with pki (SUR2)” value is reported as “pki (SUR1) larger than pki (SUR2)”. `CNC(=NS(=O)(=O)N(C)C)N1CC(c2cccc(F)c2)C(c2ccc(Cl)cc2)=N1` (stereo not drawn) [3-(4-chlorophenyl)-N′-[(dimethyl-amino)sulfonyl]-4-(3-fluorophenyl)-N-methyl-4,5-dihydro-1H-pyrazole-1-carboximidamide] was tested, and the “pki (SUR1) compared with pki (SUR2)” value was “pki (SUR1) larger than pki (SUR2)”. In the case of `CCCCC(C)(O)c1nc(-c2ccc(Cl)cc2Cl)n(-c2ccc(Cl)cc2)c1C` (stereo not drawn) [2-[1-(4-chlorophenyl)-2-(2,4-dichlorophenyl)-5-methyl-1H-imidazol-4-yl]hexan-2-ol], the “pki (SUR1) compared with pki (SUR2)” value is reported as “pki (SUR1) larger than pki (SUR2)”.
